Several values for one entry are separate records, joined by “and”; a condition that tells them apart may be missing. Identical values can stand only once.
Assays:
human platelets [1] = experiment: ROS production inhibition in thrombin-stimulated washed platelets (DCFH-DA, flow cytometry); type: cell-based; conditions: for IC50: washed human platelets, 0.1 U/mL thrombin, DCFH-DA, mean +/- SD, at least six experiments in duplicate; for activity towards ROS production in platelets (in words): human platelets, thrombin stimulated
Description: (§1) Freshly drawn venous blood from healthy volunteers of the “Centro Trasfusionale, Ospedale San Martino” in Genoa was collected into 130 mM aqueous trisodium citrate anticoagulant solution (9:1). The donors claimed to have not taken drugs known to interfere with platelet function during two weeks prior to blood collection and gave their informed consent. Washed platelets were prepared centrifuging whole blood at 100× g for 20 min. The obtained platelet-rich plasma was then centrifuged at 1100× g for 15 min. Pellet was washed once with pH 5.2 ACD solution (75 mM trisodium citrate, 42 mM citric acid and 136 mM glucose), centrifuged at 1100× g for 15 min and then re-suspended in pH 7.4 Hepes buffer (145 mM NaCl, 5 mM KCl, 1 mM MgSO4, 10 mM glucose, 10 mM HEPES).
ROS production was quantified as previously reported by DCFH-DA, a ROS-sensitive probe that yields upon oxidation the fluorescent adduct DCF that is trapped inside the cells. Briefly, washed platelets (1.0 × 10^8/mL), pre-incubated with saline, compounds 4 or 5, for 15 min at 37 °C, were stimulated by 0.1 U/mL thrombin. Incubation was stopped by cooling samples in ice bath and then samples were immediately analyzed in a Merck Millipore Bioscience Guava easyCyte flow cytometer (Merk Millipore, Burlington, MA, USA). The reported IC50 value is the molar concentration of the compound able to obtain 50% inhibition of the […] induced by the agonist and is calculated by the percentage of inhibition that is the inhibition of the […] measured in the presence of the agent compared with that measured in a control sample containing saline, carried out under the same conditions.

human platelets [2] = experiment: Platelet aggregation inhibition (Born's method, thrombin-stimulated washed platelets); type: cell-based; conditions: 0.1 U/mL thrombin, mean +/- SD, at least six experiments in duplicate
Description: as §1
Platelet aggregation was performed in a Bio-Data Aggregometer (Bio-Data Corporation, Horsham, PA, USA) according to Born’s method and quantified by the light transmission reached within 6 min at 37 °C. Briefly, washed platelets (3.0 × 10^8/mL) were pre-incubated for 3 min at 37 °C with saline, compound 4 or 5 before the addition of 0.1 U/mL thrombin. The IC50 values were calculated as above detailed.

human neutrophils = experiment: Flow cytometric evaluation of ROS production in fMLP-activated neutrophils (DCFH-DA); type: cell-based; conditions: data not shown
Excerpt: Heparinized (heparin 10 U/mL Vister, PfizerItalia, Borgo San Michele, Latina, Italy) venous blood was obtained from healthy male volunteers after written informed consent. Neutrophils were isolated by dextran sedimentation (Dextran 70.000 Plander, Fresenius Kabi Italia, Verona, Italy), and subsequent centrifugation on a Ficoll-Hypaque density gradient (Lympholyte-I from Cedarlane Laboratories Ltd. Hornby, ON, Canada), as described. Contaminating erythrocytes were removed by hypotonic lysis. Neutrophils were washed and resuspended in Hanks’balanced salt solution (HBSS; EuroCLone, Wetherby West, Yorkshire, UK) mixed with Dulbecco’s PBS (EuroClone; HBBS:PBS. Final cell suspensions contained 97% or more neutrophils and more than 98% viable cells, as evaluated by a trypan blue test kit (Sigma Aldrich).
Flow cytometric analysis of neutrophil oxidative metabolism was carried out according to literature method. Briefly, neutrophils, were cultured for 1 h with or without 4d and 5d at different concentration. Thereafter, neutrophils were pre-treated with 2′-7′-dichlorofluorescein-diacetate (DCFH-DA; Sigma, Milan, Italy) ([…]), During the incubation time, DCFH-DA entered into the cells, and it was cleaved by intracellular esterases to give non-fluorescence DCFH trapped within the cells. After washing in PBS, the cells were incubated for 15 min at room temperature in the presence or absence of N-formyl-L-methionin-L-leucyl-L-phenylalanine (fMLP; Sigma, Milan, Italy) ([…]) for 30 min at 37 °C. During this period, intracellular ROS oxidized DCFH to give a green fluorescence […]. The reaction was stopped by keeping the samples on ice before being analyzed by flow cytometry (FC500, Beckman Coulter).

Row | Molecule | melting point | IC50 (human platelets [1]; Homo sapiens, Platelet) | IC50 (human platelets [1]) | IC50 (human platelets [2]; Platelet) | activity towards ROS production in platelets (in words) (human platelets [1]) | IC50 (human platelets [2]) | activity towards ROS production in neutrophils (in words) (human neutrophils)
1 | COc1cc(/C=N/NC(=O)c2cnn(CC(O)c3ccccc3)c2N)ccc1OC(F)F (centres unmarked) [4a, (E)-5-Amino-N′-(4-(difluoromethoxy)-3-methoxybenzylidene)-1-(2-hydroxy-2-phenylethyl)-1H-pyrazole-4-carbohydrazide] | 119 to 121 °C | ~10 µM | 10.1 ± 2.1 µM | 7.6 ± 0.5 µM |  |  | 
2 | COc1cccc(/C=N/NC(=O)c2cnn(CC(O)c3ccccc3)c2N)c1OC1CCCC1 (centres unmarked) [4b, (E)-5-Amino-N′-(2-(cyclopentyloxy)-3-methoxybenzylidene)-1-(2-hydroxy-2-phenylethyl)-1H-pyrazole-4-carbohydrazide] | 180 to 181 °C | 20.5 ± 2.5 µM |  | 64 ± 2.5 µM |  |  | 
3 | CCC(C)Oc1cc(/C=N/NC(=O)c2cnn(CC(O)c3ccccc3)c2N)ccc1OC (centres unmarked) [4c, (E)-5-Amino-N′-(3-(sec-butoxy)-4-methoxybenzylidene)-1-(2-hydroxy-2-phenylethyl)-1H-pyrazole-4-carbohydrazide] | 190 to 193 °C | 16.7 ± 1.1 µM |  | 57.1 ± 1.6 µM |  |  | 
4 | Nc1c(C(=O)N/N=C/c2ccc(OC(F)F)c(OC3CCCC3)c2)cnn1CC(O)c1ccccc1 (centres unmarked) [4e, (E)-5-Amino-N′-(3-(cyclopentyloxy)-4-(difluoromethoxy)benzylidene)-1-(2-hydroxy-2-phenylethyl)-1H-pyrazole-4-carbohydrazide] | 178 to 180 °C | 32.8 ± 2.8 µM |  | 29.4 ± 4.4 µM |  |  | 
5 | Nc1c(C(=O)N/N=C/c2ccc(OC(F)F)c(Oc3ccccc3)c2)cnn1CC(O)c1ccccc1 (centres unmarked) [4f, (E)-5-Amino-N′-(4-(difluoromethoxy)-3-phenoxybenzylidene)-1-(2-hydroxy-2-phenylethyl)-1H-pyrazole-4-carbohydrazide] | 184 to 186 °C | ~10 µM | 8.6 ± 2.2 µM | 9.8 ± 1.7 µM |  |  | 
6 | Nc1c(C(=O)N/N=C/c2ccc(OC(F)F)c(OCc3ccccc3)c2)cnn1CC(O)c1ccccc1 (centres unmarked) [4g, (E)-5-Amino-N′-(3-(benzyloxy)-4-(difluoromethoxy)benzylidene)-1-(2-hydroxy-2-phenylethyl)-1H-pyrazole-4-carbohydrazide] | 144 to 146 °C | ~10 µM | 9.5 ± 2.6 µM | 11 ± 1.2 µM |  |  | 
7 | COc1cc(/C=N/NC(=O)c2cnn(CC(O)c3ccccc3)c2N)cc(OC)c1OC (centres unmarked) [4h, (E)-5-Amino-1-(2-hydroxy-2-phenylethyl)-N′-(3,4,5-trimethoxybenzylidene)-1H-pyrazole-4-carbohydrazide] |  | > 200 µM |  | > 200 µM | inactive |  | 
8 | COc1cccc(/C=N/NC(=O)c2cnn(CC(O)c3ccccc3)c2N)c1Oc1ccccc1 (centres unmarked) [4i, (E)-5-Amino-1-(2-hydroxy-2-phenylethyl)-N′-(3-methoxy-2-phenoxybenzylidene)-1H-pyrazole-4-carbohydrazide] | 207 to 209 °C | > 200 µM |  | > 200 µM | completely inactive |  | 
9 | COc1cccc(/C=N/NC(=O)c2cnn(CC(O)c3ccccc3)c2N)c1OCc1ccccc1 (centres unmarked) [4j, (E)-5-Amino-N′-(2-(benzyloxy)-3-methoxybenzylidene)-1-(2-hydroxy-2-phenylethyl)-1H-pyrazole-4-carbohydrazide] | 198 to 200 °C | > 200 µM |  | > 200 µM | completely inactive |  | 
10 | CCC(C)Oc1cc(/C=N/NC(=O)c2cnn3c2NC(c2ccccc2)C3)ccc1OC (centres unmarked) [5c, (E)-N′-(3-(sec-Butoxy)-4-methoxybenzylidene)-2-phenyl-2,3-dihydro-1H-imidazo[1,2-b]pyrazole-7-carbohydrazide] | 130 to 131 °C | 71.4 ± 6 µM |  | 70.9 ± 4 µM |  |  | 
11 | NNC(=O)c1cnn2c1NC(c1ccccc1)C2 (centres unmarked) [compound 12, 2-Phenyl-2,3-dihydro-1H-imidazo[1,2-b]pyrazole-7-carbohydrazide] |  |  |  |  | completely inactive |  | completely inactive
12 | (E)-5-Amino-N′-(3-(cyclopentyloxy)-4-methoxybenzylidene)-1-(2-hydroxy-2-phenylethyl)-1H-pyrazole-4-carbohydrazide [4k] |  |  | 90 µM and 92.7 µM |  |  | 86.1 ± 7.8 µM | 

The next lines start with results.

Row | melting point | IC50 (human platelets [1]; Homo sapiens, Platelet) | IC50 (human platelets [1]) | IC50 (human platelets [2]; Platelet) | Molecule | activity towards ROS production in platelets (in words) (human platelets [1]) | IC50 (human platelets [2]) | activity towards ROS production in neutrophils (in words) (human neutrophils)
13 | 206 to 207 °C | 37.2 ± 2.5 µM |  | 31.5 ± 5.2 µM | COc1ccc(/C=N/NC(=O)c2cnn3c2NC(c2ccccc2)C3)cc1OC (centres unmarked) [5a, (E)-N′-(3,4-Dimethoxybenzylidene)-2-phenyl-2,3-dihydro-1H-imidazo[1,2-b]pyrazole-7-carbohydrazide] |  |  | 
14 |  | 66.7 ± 5.7 µM |  | 59.1 ± 5.5 µM | COc1cccc(/C=N/NC(=O)c2cnn3c2NC(c2ccccc2)C3)c1OC1CCCC1 (centres unmarked) [5b, (E)-N′-(2-(Cyclopentyloxy)-3-methoxybenzylidene)-2-phenyl-2,3-dihydro-1H-imidazo[1,2-b]pyrazole-7-carbohydrazide] |  |  | 
15 |  | 78.8 ± 5.6 µM |  | 70.5 ± 8 µM | O=C(N/N=C/c1ccc(OC(F)F)c(OC2CCCC2)c1)c1cnn2c1NC(c1ccccc1)C2 (centres unmarked) [5e, (E)-N′-(3-(cyclopentyloxy)-4-(difluoromethoxy)benzylidene)-2-phenyl-2,3-dihydro-1H-imidazo[1,2-b]-pyrazole-7-carbohydrazide] |  |  | 
16 | 119 to 120 °C | 59.9 ± 5.7 µM |  | 61.6 ± 6.5 µM | COc1ccc(/C=N/NC(=O)c2cnn3c2NC(c2ccccc2)C3)cc1OC1CCCCC1 (centres unmarked) [5f, (E)-N′-(3-(Cyclohexyloxy)-4-(methoxy)benzylidene)-2-phenyl-2,3-dihydro-1H-imidazo[1,2-b]pyrazole-7-carbohydrazide] |  |  | 
17 |  | 77.9 ± 7.1 µM |  | 67 ± 6.6 µM | O=C(N/N=C/c1ccc2c(c1)OCO2)c1cnn2c1NC(c1ccccc1)C2 (centres unmarked) [5g, (E)-N′-(benzo[d][1,3]dioxol-5-ylmethylene)-2-phenyl-2,3-dihydro-1H-imidazo[1,2-b]pyrazole-7-carbohydrazide] |  |  | 
18 |  | > 200 µM |  | > 200 µM | COc1cc(/C=N/NC(=O)c2cnn3c2NC(c2ccccc2)C3)cc(OC)c1OC (centres unmarked) [5h, (E)-2-Phenyl-N′-(3,4,5-trimethoxybenzylidene)-2,3-dihydro-1H-imidazo[1,2-b]pyrazole-7-carbohydrazide] | inactive |  | 
19 |  |  | > 200 µM |  | COc1cccc(/C=N/NC(=O)c2cnn3c2NC(c2ccccc2)C3)c1Oc1ccccc1 (centres unmarked) [5i, (E)-N′-(2-(Phenoxy)-3-(methoxy)benzylidene)-2-phenyl-2,3-dihydro-1H-imidazo[1,2-b]pyrazole-7-carbo-hydrazide] | completely inactive | > 200 µM | 
20 | 200 to 202 °C | > 200 µM |  | > 200 µM | COc1cccc(/C=N/NC(=O)c2cnn3c2NC(c2ccccc2)C3)c1OCc1ccccc1 (centres unmarked) [5j, (E)-N′-(2-(Benzyloxy)-3-(methoxy)benzylidene)-2-phenyl-2,3-dihydro-1H-imidazo[1,2-b]pyrazole-7-carbohydrazide] | completely inactive |  | 
21 | 140 to 141 °C | > 200 µM |  | > 200 µM | COc1ccc(/C=N/NC(=O)c2cnn3c2N(C(C)=O)C(c2ccccc2)C3)cc1OC1CCCC1 (centres unmarked) [5k, (E)-1-acetyl-N′-(3-(cyclopentyloxy)-4-methoxybenzylidene)-2-phenyl-2,3-dihydro-1H-imidazo[1,2-b]pyrazole-7-carbohydrazide] | completely inactive |  | 

— PMC7070443, “New Hybrid Pyrazole and Imidazopyrazole Antinflammatory Agents Able to Reduce ROS Production in Different Biological Targets” (Molecules, 2020)
